Test results as given in paper PMC3189207, “DomPep—A General Method for Predicting Modular Domain-Mediated Protein-Protein Interactions” (PLoS ONE, 2011).
Read-outs that look alike come from different tables or passages of the source. Residues, ends and D or L forms follow the SMILES beside them.

Experiments:
Scrib PDZ-1 domain = target: T1, Scrib PDZ-1 domain (Homo sapiens, UniProt Q14160); assay: In-solution fluorescence polarization binding of peptides to Scrib PDZ1
T1 construct: ROC curves of DomPep prediction for the three Scrib PDZ-1/2/3 domains
T1 sequence (Q14160 728-815 limits assumed): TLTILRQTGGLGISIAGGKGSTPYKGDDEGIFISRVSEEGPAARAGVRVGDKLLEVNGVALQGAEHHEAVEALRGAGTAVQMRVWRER

Scrib PDZ-2 domain = target: T2, Scrib PDZ-2 domain (Homo sapiens, UniProt Q14160); assay: In-solution fluorescence polarization binding of peptides to Scrib PDZ2
T2 construct: ROC curves of DomPep prediction for the three Scrib PDZ-1/2/3 domains
T2 sequence (Q14160 862-950 limits assumed): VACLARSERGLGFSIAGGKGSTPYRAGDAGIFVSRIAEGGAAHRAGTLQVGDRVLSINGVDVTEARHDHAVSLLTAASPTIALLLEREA

[1] = Kd value of 100 µM applied as binding cutoff, NB without definition, read-out: Kd (µM) PDZ1
[2] = Kd value of 100 µM applied as binding cutoff, NB without definition, read-out: Kd (µM) PDZ2

Structure (SMILES)	Kd (Scrib PDZ-1 domain; [1]) [µM]	Kd (Scrib PDZ-2 domain; [2]) [µM]	Kd (Scrib PDZ-1 domain; read-out: Kd (µM) PDZ1, Kd value of 100 µM applied as binding cutoff, NB without definition) [µM]	Kd (Scrib PDZ-2 domain; read-out: Kd (µM) PDZ2, Kd value of 100 µM applied as binding cutoff, NB without definition) [µM]
CC(C)[C@H](NC(=O)[C@H](CO)NC(=O)[C@@H](NC(=O)[C@@H](NC(=O)[C@@H](NC(=O)[C@H](CCCNC(=N)N)NC(=O)[C@@H](NC(=O)[C@H](CCCCN)NC(=O)[C@H](C)NC(=O)[C@@H](N)CO)C(C)C)[C@@H](C)O)C(C)C)[C@@H](C)O)C(=O)O [RASL11B] (H-SAKVRTVTSV-OH)	> 100	> 100		
CC(C)C[C@H](NC(=O)[C@H](CCCNC(=N)N)NC(=O)[C@@H]1CCCN1C(=O)[C@H](Cc1c[nH]cn1)NC(=O)[C@H](CO)NC(=O)[C@@H]1CCCN1)C(=O)N[C@@H](CCC(N)=O)C(=O)N[C@H](C(=O)N[C@@H](Cc1c[nH]cn1)C(=O)N[C@H](C(=O)O)C(C)C)[C@@H](C)O [KIRREL2] (H-PSHPRLQTHV-OH)	> 100	> 100		
CC[C@H](C)[C@H](NC(=O)[C@H](CC(C)C)NC(=O)[C@H](CCC(N)=O)NC(=O)[C@H](CCSC)NC(=O)[C@H](CC(N)=O)NC(=O)[C@H](Cc1ccccc1)NC(=O)[C@@H](N)CO)C(=O)N[C@@H](CO)C(=O)N[C@@H](CCC(N)=O)C(=O)N[C@H](C(=O)O)C(C)C [FAM126B] (H-SFNMQLISQV-OH)	> 100	> 100		
CC(C)C[C@H](NC(=O)[C@H](CCC(=O)O)NC(=O)[C@@H](NC(=O)[C@H](CC(=O)O)NC(=O)[C@H](Cc1ccc(O)cc1)NC(=O)[C@H](CCCNC(=N)N)NC(=O)[C@H](C)NC(=O)[C@H](CO)NC(=O)[C@@H](N)CCC(N)=O)[C@@H](C)O)C(=O)O [ZO2] (H-QSARYDTEL-OH)	16	> 100		
CC[C@H](C)[C@H](NC(=O)[C@H](CO)NC(=O)[C@H](CO)NC(=O)[C@H](CCC(=O)O)NC(=O)[C@H](C)NC(=O)[C@H](CO)NC(=O)[C@H](C)NC(=O)[C@@H](NC(=O)[C@H](CC(=O)O)NC(=O)[C@@H](N)C(C)C)[C@@H](C)CC)C(=O)O [TANK] (H-VDIASAESSI-OH)	102	> 100		
CC(C)C[C@H](NC(=O)[C@H](CO)NC(=O)[C@@H](NC(=O)[C@H](CCC(=O)O)NC(=O)[C@H](CCC(=O)O)NC(=O)[C@H](CS)NC(=O)[C@@H](NC(=O)[C@H](CCCNC(=N)N)NC(=O)[C@@H](NC(=O)[C@@H]1CCCN1)C(C)C)C(C)C)[C@@H](C)O)C(=O)O [FAM105B] (H-PVRVCEETSL-OH)	1.9	17.6		
CC(C)C[C@H](NC(=O)[C@H](CC(=O)O)NC(=O)[C@@H](NC(=O)[C@H](CO)NC(=O)[C@H](C)NC(=O)[C@H](CCCCN)NC(=O)[C@H](C)NC(=O)[C@@H](NC(=O)[C@H](CC(C)C)NC(=O)[C@@H](N)C(C)C)[C@@H](C)O)[C@@H](C)O)C(=O)O [LPP] (H-VLTAKASTDL-OH)	24.2	> 100		
CC(C)C[C@H](NC(=O)[C@@H](NC(=O)CNC(=O)[C@H](CC(N)=O)NC(=O)[C@H](CCCCN)NC(=O)[C@H](CO)NC(=O)[C@H](CC(=O)O)NC(=O)[C@H](Cc1ccc(O)cc1)NC(=O)[C@@H](N)CCCNC(=N)N)[C@@H](C)O)C(=O)N[C@H](C(=O)O)C(C)C [C11orf52] (H-RYDSKNGTLV-OH)	> 100	> 100		
CSCC[C@H](NC(=O)[C@H](Cc1ccccc1)NC(=O)[C@H](C)NC(=O)[C@@H](N)Cc1c[nH]c2ccccc12)C(=O)N[C@@H](CCCNC(=N)N)C(=O)N[C@@H](Cc1ccc(O)cc1)C(=O)N[C@@H](CCCNC(=N)N)C(=O)N[C@@H](CCC(N)=O)C(=O)N[C@@H](CCC(N)=O)C(=O)N[C@@H](CC(C)C)C(=O)O [SYNJ2BP] (H-WAFMRYRQQL-OH)	> 100	> 100		
CC(C)C[C@H](NC(=O)[C@H](CC(N)=O)NC(=O)[C@@H](NC(=O)[C@H](CCC(=O)O)NC(=O)[C@H](CC(=O)O)NC(=O)[C@H](Cc1c[nH]c2ccccc12)NC(=O)[C@H](C)NC(=O)[C@@H]1CCCN1C(=O)[C@H](CC(=O)O)NC(=O)[C@@H](N)CC(N)=O)[C@@H](C)O)C(=O)O [b-PIX] (H-NDPAWDETNL-OH)	5.3	16.8		
CC(C)C[C@H](NC(=O)[C@H](Cc1ccc(O)cc1)NC(=O)[C@H](CO)NC(=O)CNC(=O)[C@H](CO)NC(=O)[C@@H](N)Cc1c[nH]cn1)C(=O)N[C@H](C(=O)N[C@H](C(=O)N[C@@H](CO)C(=O)N[C@H](C(=O)O)C(C)C)[C@@H](C)O)C(C)C [APC] (H-HSGSYLVTSV-OH)	12.3	9.5		
CSCC[C@H](NC(=O)[C@H](CC(C)C)NC(=O)[C@@H](NC(=O)[C@H](C)NC(=O)[C@H](CCSC)NC(=O)[C@H](CCCCN)NC(=O)[C@H](CC(N)=O)NC(=O)[C@@H]1CCCN1C(=O)[C@H](CC(N)=O)NC(=O)[C@@H](N)CC(C)C)[C@@H](C)O)C(=O)O [GLO1] (H-LNPNKMATLM-OH)			> 100	> 100
CC(C)C[C@H](NC(=O)[C@H](CO)NC(=O)[C@@H](NC(=O)[C@H](CC(=O)O)NC(=O)[C@@H](NC(=O)[C@H](CC(C)C)NC(=O)[C@H](CCC(N)=O)NC(=O)CNC(=O)[C@@H]1CCCN1C(=O)[C@@H](N)CCC(N)=O)C(C)C)[C@@H](C)O)C(=O)O [ANKS4B] (H-QPGQLVDTSL-OH)	> 100	> 100		
CSCC[C@H](NC(=O)[C@@H](N)C(C)C)C(=O)N[C@@H](CCCNC(=N)N)C(=O)N[C@@H](CC(C)C)C(=O)N[C@@H](CCC(N)=O)C(=O)N[C@@H](CO)C(=O)N[C@@H](CCC(=O)O)C(=O)N[C@H](C(=O)N[C@@H](CO)C(=O)N[C@H](C(=O)O)C(C)C)[C@@H](C)O [VANGL2] (H-VMRLQSETSV-OH)	21.6			
CC(C)C[C@H](NC(=O)[C@H](CC(N)=O)NC(=O)[C@H](CCC(=O)O)NC(=O)CNC(=O)[C@@H]1CCCN1C(=O)[C@H](CCC(N)=O)NC(=O)[C@H](Cc1ccc(O)cc1)NC(=O)[C@H](CCC(N)=O)NC(=O)[C@@H]1CCCN1C(=O)[C@@H](N)CCC(=O)O)C(=O)O [SRC] (H-EPQYQPGENL-OH)	> 100	> 100		
CC[C@H](C)[C@H](NC(=O)[C@@H]1CCCN1C(=O)[C@H](Cc1c[nH]cn1)NC(=O)[C@@H](NC(=O)[C@@H](N)Cc1ccccc1)C(C)C)C(=O)N[C@@H](CC(C)C)C(=O)N[C@@H](CCC(N)=O)C(=O)N[C@@H](CO)C(=O)N[C@@H](C)C(=O)N[C@H](C(=O)O)C(C)C [PRKCA] (H-FVHPILQSAV-OH)	17.4	46		

The next lines start with results.

Kd (Scrib PDZ-1 domain; [1]) [µM]	Kd (Scrib PDZ-2 domain; [2]) [µM]	Structure (SMILES)	Kd (Scrib PDZ-1 domain; read-out: Kd (µM) PDZ1, Kd value of 100 µM applied as binding cutoff, NB without definition) [µM]	Kd (Scrib PDZ-2 domain; read-out: Kd (µM) PDZ2, Kd value of 100 µM applied as binding cutoff, NB without definition) [µM]
> 100	> 100	CC[C@H](C)[C@H](NC(=O)[C@H](CC(=O)O)NC(=O)[C@H](CC(N)=O)NC(=O)[C@H](CC(C)C)NC(=O)[C@H](C)NC(=O)[C@H](CC(N)=O)NC(=O)[C@@H](N)CC(=O)O)C(=O)N[C@H](C(=O)N[C@@H](CO)C(=O)N[C@@H](CC(C)C)C(=O)O)[C@@H](C)O [TPM2] (H-DNALNDITSL-OH)		
> 100	> 100	CC[C@H](C)[C@H](NC(=O)[C@H](CCCNC(=N)N)NC(=O)[C@@H](NC(=O)[C@H](CCCNC(=N)N)NC(=O)[C@H](CO)NC(=O)[C@H](C)NC(=O)[C@@H](N)CC(N)=O)[C@@H](C)O)C(=O)N[C@H](C(=O)N[C@@H](Cc1ccccc1)C(=O)N[C@H](C(=O)O)C(C)C)[C@@H](C)O [MCM7] (H-NASRTRITFV-OH)		
> 100	75.7	CSCC[C@H](NC(=O)CNC(=O)[C@H](CC(N)=O)NC(=O)[C@@H](NC(=O)[C@H](CC(C)C)NC(=O)[C@H](CCC(N)=O)NC(=O)[C@@H](N)C(C)C)C(C)C)C(=O)N[C@H](C(=O)N1CCC[C@H]1C(=O)N[C@@H](CC(C)C)C(=O)O)C(C)C [EPHA5] (H-VQLVNGMVPL-OH)		
> 100	> 100	CC(C)C[C@H](NC(=O)[C@H](CO)NC(=O)[C@H](CO)NC(=O)[C@H](CCC(=O)O)NC(=O)[C@H](Cc1ccc(O)cc1)NC(=O)[C@H](CO)NC(=O)[C@@H](NC(=O)[C@H](C)NC(=O)[C@@H](NC(=O)[C@@H](N)CCCCN)C(C)C)[C@@H](C)O)C(=O)O [STK29] (H-KVATSYESSL-OH)		
> 100	32.1	CC[C@H](C)[C@H](NC(=O)[C@@H](NC(=O)[C@H](CCC(=O)O)NC(=O)[C@H](CO)NC(=O)[C@@H]1CCCN1C(=O)[C@H](CCC(N)=O)NC(=O)[C@H](C)NC(=O)[C@H](CO)NC(=O)[C@@H](N)CO)[C@@H](C)O)C(=O)N[C@@H](CC(C)C)C(=O)O [ZNF654] (H-SSAQPSETIL-OH)		
19.2	> 100	CC(C)C[C@H](NC(=O)[C@H](CO)NC(=O)[C@@H](NC(=O)[C@@H](NC(=O)[C@@H](NC(=O)[C@H](Cc1ccccc1)NC(=O)[C@@H](NC(=O)[C@H](CC(=O)O)NC(=O)[C@H](CCC(=O)O)NC(=O)[C@@H]1CCCN1)[C@@H](C)O)[C@@H](C)O)C(C)C)[C@@H](C)O)C(=O)O [AHDC1] (H-PEDTFTVTSL-OH)		
23.6	34.3	CC(C)C[C@H](NC(=O)[C@@H]1CCCN1C(=O)[C@@H](NC(=O)[C@H](CCC(=O)O)NC(=O)[C@H](CCCCN)NC(=O)[C@H](CCCCN)NC(=O)[C@H](Cc1ccc(O)cc1)NC(=O)[C@H](CC(N)=O)NC(=O)[C@H](Cc1ccccc1)NC(=O)[C@@H](N)CO)[C@@H](C)O)C(=O)O [ARD50] (H-SFNYKKETPL-OH)		
20.3	56.1	CC(C)C[C@H](NC(=O)[C@@H]1CCCN1C(=O)[C@@H](NC(=O)[C@H](CCC(=O)O)NC(=O)[C@H](CCCCN)NC(=O)[C@H](CO)NC(=O)[C@@H](NC(=O)[C@H](CCCNC(=N)N)NC(=O)[C@H](C)NC(=O)CN)C(C)C)[C@@H](C)O)C(=O)O [MAPK12] (H-GARVSKETPL-OH)		
> 100	24.9	CC(C)C[C@H](NC(=O)[C@H](CS)NC(=O)[C@H](Cc1c[nH]cn1)NC(=O)[C@H](CC(C)C)NC(=O)[C@H](C)NC(=O)[C@H](CCC(=O)O)NC(=O)[C@H](CC(C)C)NC(=O)[C@H](CCC(=O)O)NC(=O)[C@@H]1CCCN1C(=O)[C@@H](N)CC(=O)O)C(=O)O [EPHA8] (H-DPELEALHCL-OH)		
